In test [1] the target is T1, purified LasB protein from P. aeruginosa (Pseudomonas aeruginosa, UniProt P14756).
T1 construct: purchased Merck or Charles River Laboratories
As to the kind of experiment: Fluorometric assay to determine Ki (Abz-Ala-Gly-Leu-Ala-p-Nitro-Benzyl-Amide substrate). The class given is biochemical. A digest of the protocol: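 Purified P. aeruginosa LasB (10–140 ng/ml) with 250 µM Abz-Ala-Gly-Leu-Ala-p-nitrobenzylamide in 50 mM Tris-HCl pH 7.4, 2.5 mM CaCl2, 0.01% Triton X100, 37 °C; hydrolysis fluorescence (Ex 340/Em 415 nm) followed over 30 min, inhibitor 0.0016–200 µM. Ki = IC50/(1+[S]/Km), Km 214 µM.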

Another test has as its target T2, LasB (Pseudomonas aeruginosa, UniProt P14756).
T2 construct: uses as source of enzyme dialysed supernatant from P. aeruginosa PAO1; endogenous in cells; host or cells: P. aeruginosa PAO1 culture supernatant, filtered and dialysed
As to the kind of experiment: Elastin assay to determine % inhibition (Elastin Congo-Red, dialysed culture supernatant). The class given is biochemical, P. aeruginosa PAO1. Conditions: read-out: Elastin hydrolysis % inhibition @ 50 / 25 µM inhibitor concentration. A digest of the protocol: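 Enzyme source was dialysed PAO1 culture supernatant (50 mM Tris-HCl pH 7.4, 2.5 mM CaCl2), mixed with Elastin Congo-Red and 0.01% Triton X-100. Compound was routinely 50 to 1.56 µM, incubated overnight at 37 °C with shaking. Dye release at OD495 gave % inhibition relative to DMSO and no-enzyme controls.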

Molecules are shown by their SMILES. Like-named read-outs stand apart in the source and are kept apart here.

Results on 26 compounds are retold here after EP3628672A1 (priority 2018, dated 2020).

As a reminder, the Ki is the dissociation constant of the complex between target and ligand, obtained from inhibition or displacement.

T2 sequence (P14756 198-498): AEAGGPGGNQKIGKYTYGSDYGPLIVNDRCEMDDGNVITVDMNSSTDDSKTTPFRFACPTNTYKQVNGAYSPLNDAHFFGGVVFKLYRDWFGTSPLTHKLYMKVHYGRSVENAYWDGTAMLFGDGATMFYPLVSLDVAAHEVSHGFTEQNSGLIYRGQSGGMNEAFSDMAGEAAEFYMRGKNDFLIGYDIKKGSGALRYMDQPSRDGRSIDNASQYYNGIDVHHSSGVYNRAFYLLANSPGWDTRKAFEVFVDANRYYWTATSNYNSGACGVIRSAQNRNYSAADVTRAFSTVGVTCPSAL
T1 sequence (P14756 198-498): as above

Consider `O=C(O)CC1(C(=O)NCc2nc(-c3cnn(CCCN4CCCOCC4)c3)cs2)Cc2ccccc2C1` [Example 109, 2-[2-[[4-[1-[3-(1,4-oxazepan-4-yl)propyl]pyrazol-4-yl]thiazol-2-yl]methylcarbamoyl]indan-2-yl]acetic acid], for which the Ki in test [1] is 50 to 200 nM. Also, the inhibition at 25 µM at LasB lay within 60 to 75%.

Regarding `COc1cccc(-c2csc(CNC(=O)C3(CC(=O)O)Cc4ccccc4C3)n2)c1` [Example 5, 2-[2-[[4-(3-methoxyphenyl)thiazol-2-yl]methylcarbamoyl]indan-2-yl]acetic acid], the inhibition constant (Ki) in test [1] was in the range of 50 to 200 nM. Further, at LasB, the inhibition at 25 µM is 60 to 75%.

`CN1CCN(CCCOc2ccc(-c3csc(CNC(=O)C4(CC(=O)O)Cc5ccccc5C4)n3)cc2)CC1` [Example 57, 2-[2-[[4-[4-[3-(4-methylpiperazin-1-yl)propoxy]phenyl]thiazol-2-yl]methylcarbamoyl]indan-2-yl]acetic acid] had a Ki in test [1] of 50 to 200 nM. Further, the inhibition at 25 µM on LasB lay in the range of 60 to 75%.

As to `C[N+]1(C)CCN(S(=O)(=O)c2cccc(-c3csc(CNC(=O)C4(CC(=O)[O-])Cc5ccccc5C4)n3)c2)CC1` [Example 128, 2-[2-[[4-[3-(4,4-dimethylpiperazin-4-ium-1-yl)sulfonylphenyl]thiazol-2-yl]methylcarbamoyl]indan-2-yl]acetate], the Ki in test [1] was 200 to 10000 nM. The inhibition at 25 µM on LasB was 10 to 60%.

`CN1CCN(C(=O)COc2ccc(-c3csc(CNC(=O)C4(CC(=O)O)Cc5ccccc5C4)n3)cn2)CC1` [Example 38, 2-[2-[[4-[6-[2-(4-methylpiperazin-1-yl)-2-oxo-ethoxy]-3-pyridyl]thiazol-2-yl]methylcarbamoyl]indan-2-yl]acetic acid] displayed a Ki in test [1] of 50 to 200 nM. Further, at LasB, the inhibition at 25 µM was 60 to 75%.

The compound `COc1cc(OCC(=O)N2CC[N+](C)(C)CC2)ccc1-c1csc(CNC(=O)C2(CC(=O)[O-])Cc3cc(F)c(F)cc3C2)n1` [Example 82, 2-[2-[[4-[4-[2-(4,4-dimethylpiperazin-4-ium-1-yl)-2-oxo-ethoxy]-2-methoxy-phenyl]thiazol-2-yl]methylcarbamoyl]-5,6-difluoro-indan-2-yl]acetate] came in with a Ki in test [1] of 50 to 200 nM. Further, the inhibition at 25 µM on LasB was in the range of 60 to 75%.

`CN1CCC(C(=O)N2CCN(CCCn3cc(-c4csc(CNC(=O)C5(CC(=O)O)Cc6ccccc6C5)n4)cn3)CC2)CC1` [Example 114, 2-[2-[[4-[1-[3-[4-(1-methylpiperidine-4-carbonyl)piperazin-1-yl]propyl]pyrazol-4-yl]thiazol-2-yl]methylcarbamoyl]indan-2-yl]acetic acid] came in with a Ki in test [1] of 50 to 200 nM. For the same compound, the inhibition at 25 µM at LasB lay within 60 to 75%.

Turning to `COc1cc(OCCCN(C)C)ccc1-c1csc(CNC(=O)C2(CC(=O)O)Cc3cc(F)c(F)cc3C2)n1` [Example 80, 2-[2-[[4-[4-[3-(dimethylamino)propoxy]-2-methoxyphenyl]thiazol-2-yl]methylcarbamoyl]-5,6-difluoro-indan-2-yl]acetic acid], the Ki in test [1] was 50 to 200 nM. In addition, the inhibition at 25 µM at LasB lay in the range of 60 to 75%.

Regarding `COc1ccc(-c2csc(CNC(=O)C3(CC(=O)O)Cc4ccccc4C3)n2)cc1C(=O)N1CCC(N(C)C)CC1` [Example 137, 2-[2-[[4-[3-[4-(dimethylamino)piperidine-1-carbonyl]-4-methoxy-phenyl]thiazol-2-yl]methylcarbamoyl]indan-2-yl]acetic acid], in test [1], the Ki was in the range of 50 to 200 nM. Moreover, on LasB, the inhibition at 25 µM fell in the range of 10 to 60%.

In test [1], `COc1cc(OCc2ccc[n+](C)c2)ccc1-c1csc(CNC(=O)C2(CC(=O)[O-])Cc3ccccc3C2)n1` [Example 77, 2-[2-[[4-[2-methoxy-4-[(1-methylpyridin-1-ium-3-yl)methoxy]phenyl]thiazol-2-yl]methylcarbamoyl]indan-2-yl]acetate] came in with a Ki of 50 to 200 nM. Also, the inhibition at 25 µM on LasB was in the range of 10 to 60%.

`Cn1cc(-c2csc(CNC(=O)C3(CC(=O)O)Cc4ccccc4C3)n2)cn1` [Example 89, 2-[2-[[4-(1-methylpyrazol-4-yl)thiazol-2-yl]methylcarbamoyl]indan-2-yl]acetic acid]: the Ki in test [1] fell in the range of 50 to 200 nM. The inhibition at 25 µM on LasB is 60 to 75%.

In test [1], `NCCOc1ccccc1-c1csc(CNC(=O)C2(CC(=O)O)Cc3ccccc3C2)n1` [Example 14, 2-[2-[[4-[2-(2-aminoethoxy)phenyl]thiazol-2-yl]methylcarbamoyl]indan-2-yl]acetic acid] came in with a Ki of 200 to 10000 nM. The inhibition at 25 µM on LasB was in the range of 10 to 60%.

In test [1], `CN1CCN(S(=O)(=O)c2ccc(-c3csc(CNC(=O)C4(CC(=O)O)Cc5ccccc5C4)n3)cc2)CC1` [Example 130, 2-[2-[[4-[4-(4-methylpiperazin-1-yl)sulfonylphenyl]thiazol-2-yl]methylcarbamoyl]indan-2-yl]acetic acid] came in with a Ki of 50 to 200 nM. In addition, the inhibition at 25 µM on LasB lay within 60 to 75%.

`CS(=O)(=O)c1cc(-c2csc(CNC(=O)C3(CC(=O)O)Cc4ccccc4C3)n2)ccc1OCCN1CCOCC1` [Example 135, 2-[2-[[4-[3-methylsulfonyl-4-(2-morpholinoethoxy)phenyl]thiazol-2-yl]methylcarbamoyl]indan-2-yl]acetic acid] came in with a Ki in test [1] of under 50 nM. Further, on LasB, the inhibition at 25 µM is over 75%.

In test [1], `COc1ccc(-c2csc(CNC(=O)C3(CC(=O)[O-])Cc4cc(F)c(F)cc4C3)n2)cc1S(=O)(=O)N1CCC([N+](C)(C)C)CC1` [Example 124, 2-[5,6-difluoro-2-[[4-[4-methoxy-3-[[4-(trimethylammonio)-1-piperidyl]sulfonyl]phenyl]thiazol-2-yl]methylcarbamoyl]indan-2-yl] acetate] showed a Ki of 50 to 200 nM. In addition, on LasB, the inhibition at 25 µM is 60 to 75%.

In test [1], `O=C(O)CC1(C(=O)NCc2nc(-c3cncnc3)cs2)Cc2ccccc2C1` [Example 94, 2-[2-[(4-pyrimidin-5-ylthiazol-2-yl)methylcarbamoyl]indan-2-yl]acetic acid] yielded a Ki of 200 to 10000 nM. On LasB, the inhibition at 25 µM fell in the range of 60 to 75%.

Turning to `CN1C[C@@H]2CN(c3ccc(-c4csc(CNC(=O)C5(CC(=O)O)Cc6ccccc6C5)n4)cc3)C[C@@H]2C1` [Example 30, 2-[2-[[4-[4-[(3aS,6aR)-2-methyl-1,3,3a,4,6,6a-hexahydropyrrolo[3,4-c]pyrrol-5-yl]phenyl]thiazol-2-yl]methylcarbamoyl]indan-2-yl]acetic acid], the Ki in test [1] was in the range of 200 to 10000 nM. Also, at LasB, the inhibition at 25 µM lay within 10 to 60%.

With `COc1cc(OCCC[N+]2(C)CCOCC2)ccc1-c1csc(CNC(=O)C2(CC(=O)[O-])Cc3ccccc3C2)n1` [Example 69, 2-[2-[[4-[2-methoxy-4-[3-(4-methylmorpholin-4-ium-4-yl)propoxy]phenyl]thiazol-2-yl]methylcarbamoyl]indan-2-yl]acetate], the Ki in test [1] was in the range of 50 to 200 nM. Besides, the inhibition at 25 µM on LasB lay in the range of 10 to 60%.

`O=C(O)CC1(C(=O)NCc2nc(-c3cccc(O)c3)cs2)Cc2ccccc2C1` [Example 12, 2-[2-[[4-(3-hydroxyphenyl)thiazol-2-yl]methylcarbamoyl]indan-2-yl]acetic acid]: the Ki in test [1] was 50 to 200 nM. Besides, the inhibition at 25 µM on LasB lay within 60 to 75%.

In test [1], `CN(C)CC(=O)Nc1ccc(-c2csc(CNC(=O)C3(CC(=O)O)Cc4ccccc4C3)n2)cc1` [Example 39, 2-[2-[[4-[4-[[2-(dimethylamino)acetyl]amino]phenyl]thiazol-2-yl]methylcarbamoyl]indan-2-yl]acetic acid] yielded a Ki of 50 to 200 nM. Besides, the inhibition at 25 µM on LasB is 60 to 75%.

For the compound `CN1CCN(C(=O)Cn2cc(-c3csc(CNC(=O)C4(CC(=O)O)Cc5ccccc5C4)n3)cn2)CC1` [Example 101], the inhibitory constant (Ki) in test [1] (Ki calculated from IC50, [S] = 250 µM, Km = 214 µM, 37°C, pH 7.4) is 200 to 10000 nM. For the same compound, the inhibition at 25 µM on LasB lay within 60 to 75%.

Regarding `Cn1nccc1-c1csc(CNC(=O)C2(CC(=O)O)Cc3ccccc3C2)n1` [Example 92, 2-[2-[[4-(2-methylpyrazol-3-yl)thiazol-2-yl]methylcarbamoyl]indan-2-yl]acetic acid], the Ki in test [1] is 50 to 200 nM. Also, the inhibition at 25 µM on LasB lay in the range of 60 to 75%.

`CN1CCN(C(=O)N2CCC(n3cc(-c4csc(CNC(=O)C5(CC(=O)O)Cc6ccccc6C5)n4)cn3)CC2)CC1` [Example 104, 2-[2-[[4-[1-[1-(4-methylpiperazine-1-carbonyl)-4-piperidyl]pyrazol-4-yl]thiazol-2-yl]methylcarbamoyl]indan-2-yl]acetic acid]: the Ki in test [1] was 50 to 200 nM. On LasB, the inhibition at 25 µM was 60 to 75%.

On to `COc1cc(OCc2cc[n+](C)cc2)ccc1-c1csc(CNC(=O)C2(CC(=O)[O-])Cc3ccccc3C2)n1` [Example 75, 2-[2-[[4-[2-methoxy-4-[(1-methylpyridin-1-ium-4-yl)methoxy]phenyl]thiazol-2-yl]methylcarbamoyl]indan-2-yl]acetate], for which the Ki in test [1] lay within 50 to 200 nM. For the same compound, the inhibition at 25 µM at LasB lay within 60 to 75%.

The compound `COc1cc(OCC(=O)N2CC([N+](C)(C)C)C2)ccc1-c1csc(CNC(=O)C2(CC(=O)[O-])Cc3cc(F)c(F)cc3C2)n1` [Example 64, 2-[5,6-difluoro-2-[[4-[2-methoxy-4-[2-oxo-2-[3-(trimethylammonio)azetidin-1-yl]ethoxy]phenyl]thiazol-2-yl]methylcarbamoyl]indan-2-yl]acetate] displayed a Ki in test [1] of 50 to 200 nM. In addition, the inhibition at 25 µM at LasB is 60 to 75%.

As to `CN(C)C1CN(c2ccc(-c3csc(CNC(=O)C4(CC(=O)O)Cc5ccccc5C4)n3)cn2)C1` [Example 35, 2-[2-[[4-[6-[3-(dimethylamino)azetidin-1-yl]-3-pyridyl]thiazol-2-yl]methylcarbamoyl]indan-2-yl]acetic acid], the Ki in test [1] lay in the range of 50 to 200 nM. On LasB, the inhibition at 25 µM fell in the range of 60 to 75%.
